Measured values published in patent US11691949B2, “Quinoline sulfonamide compounds and their use as antibacterial agents” (OTAGO INNOVATION LIMITED, priority 2017, dated 2023).
≈ marks a conversion by molar mass, not a printed value. Counter-ions that a name gives are not always drawn. Like-named read-outs stand apart in the source and are kept apart here.

Key:
Assay type in all cases: cell-based
[1] = tested on: E. coli ATCC 10596; assay: MIC by broth microdilution, E. coli; conditions: Escherichia coli
Description: (§1) Antibacterial susceptibility testing was performed in triplicate (biological) by measuring minimum inhibitory concentrations (MICs) by broth microdilution in 96-well flat bottom microtiter plates (ThermoFisher Scientific, New Zealand). S. uberis ATCC 19436, S. aureus ATCC 6538, or E. coli ATCC 10596 cells grown overnight were diluted to an OD600 of approximately 0.025, so that the final concentration of cells in the MIC assay was approximately 5×10^5 cfu/mL in media as follows: S. uberis; Todd Hewitt Broth (THB), S. aureus; Tryptic Soy Broth (TSB) and Cation Adjusted Muller Hinton Broth (CAMHB), and E. coli; Lysogeny Borth (LB) and CAMHB, before being dispensed into microtiter wells. As required additional sterile Zinc Sulphate (Heptahydrate) was supplemented into the media, so the final concentration was 50 μM. Test compounds were added to starting wells and two-fold serial dilutions were undertaken to generate a range of inhibitor concentrations at a final volume of 200 μl. Media and test compound-free (untreated) controls were included in each microtiter plate in triplicate. After 24 h incubation at 37° C. and 200 rpm, the OD600 of wells were read using a Varioskan Flash plate reader (ThermoFisher Scientific, New Zealand). The MIC was reported as the lowest concentration of the test compound for which no growth occurred, as determined by OD600 readings. The minimum bactericidal concentration (MBC) was determined using the Miles-Misra drop-plate method to measure the viability of cells in response to test compound challenge.

[2] = tested on: S. aureus ATCC 6538; assay: MIC by broth microdilution, S. aureus; conditions: Staphylococcus aureus
Description: as §1

[3] = tested on: S. uberis ATCC 19436; assay: MIC by broth microdilution, S. uberis; conditions: Streptococcus uberis
Description: as §1

[4] = ATCC 10536 / ATCC 10596, No Zinc, read-out: E. coli ATCC 10536 MIC
[5] = ATCC 10536 / ATCC 10596, Zinc (50 μM), read-out: E. coli ATCC 10536 MIC
[6] = ATCC6538, No Zinc, read-out: S. aureus ATCC 6538 MIC
[7] = ATCC6538, Zinc (50 μM), read-out: S. aureus ATCC 6538 MIC
[8] = ATCC19436, No Zinc, read-out: S. uberis ATCC 19436 MIC
[9] = ATCC19436, Zinc (50 μM), read-out: S. uberis ATCC 19436 MIC

MIC [1, 4]	MIC [1, 5]	MIC [2, 6]	MIC [2, 7]	MIC [3, 8]	MIC [3, 9]	SMILES	MIC ([1]; ATCC 10536 / ATCC 10596, read-out: E. coli ATCC 10536 MIC, No Zinc)	MIC ([1]; ATCC 10536 / ATCC 10596, read-out: E. coli ATCC 10536 MIC, Zinc (50 μM))	MIC ([2]; ATCC6538, read-out: S. aureus ATCC 6538 MIC, No Zinc)	MIC ([2]; ATCC6538, read-out: S. aureus ATCC 6538 MIC, Zinc (50 μM))	MIC ([3]; ATCC19436, read-out: S. uberis ATCC 19436 MIC, No Zinc)	MIC ([3]; ATCC19436, read-out: S. uberis ATCC 19436 MIC, Zinc (50 μM))
> 256 µg/mL	> 256 µg/mL	> 256 µg/mL	> 256 µg/mL	> 256 µg/mL	0.125 µg/mL	CC(C)(C)OC(=O)N1CCCC(C(=O)N/N=C/c2ccc3cccc(NS(=O)(=O)c4ccc(C(F)(F)F)cc4)c3n2)C1 (mixture of isomers) [ZDR123, tert-Butyl (E/Z)-3-(2-((8-((4-(trifluoromethyl)phenyl)sulfonamido)quinolin-2-yl)methylene)hydrazine-1-carbonyl)piperidine-1-carboxylate]						
> 256 µg/mL	> 256 µg/mL	> 256 µg/mL	> 256 µg/mL	> 256 µg/mL	0.125 µg/mL (≈ 0.341 µM)	Cc1ccc2cccc(NS(=O)(=O)c3ccc(C(F)(F)F)cc3)c2n1 [ZDR018, N-(2-Methylquinolin-8-yl)-4-(trifluoromethyl)benzenesulfonamide]						
128 µg/mL (≈ 337 µM)	128 µg/mL (≈ 337 µM)	8 µg/mL (≈ 21 µM)	8 µg/mL (≈ 21 µM)	16 µg/mL (≈ 42.1 µM)	1 µg/mL (≈ 2.63 µM)	O=Cc1ccc2cccc(NS(=O)(=O)c3ccc(C(F)(F)F)cc3)c2n1 [ZDR019, N-(2-Formylquinolin-8-yl)-4-(trifluoromethyl)benzenesulfonamide]						
> 256 µg/mL	> 256 µg/mL	16 µg/mL (≈ 39.1 µM)	8 µg/mL (≈ 19.5 µM)	64 µg/mL (≈ 156 µM)	0.125 µg/mL (≈ 0.305 µM)	CN(C)Cc1ccc2cccc(NS(=O)(=O)c3ccc(C(F)(F)F)cc3)c2n1 [ZDR022, N-(2-((Dimethylamino)methyl)quinolin-8-yl)-4-(trifluoromethyl)-benzenesulfonamide]						
256 µg/mL (≈ 647 µM)	≥ 256 µg/mL	16 µg/mL (≈ 40.5 µM)	8 µg/mL (≈ 20.2 µM)	64 µg/mL (≈ 162 µM)	0.25 µg/mL (≈ 0.632 µM)	CNCc1ccc2cccc(NS(=O)(=O)c3ccc(C(F)(F)F)cc3)c2n1 [ZDR024, N-(2-((Methylamino)methyl)quinolin-8-yl)-4-(trifluoromethyl)-benzenesulfonamide]						
256 µg/mL (≈ 625 µM)	≥ 256 µg/mL	32 µg/mL (≈ 78.2 µM)	> 256 µg/mL	64 µg/mL (≈ 156 µM)	0.125 µg/mL (≈ 0.305 µM)	CCNCc1ccc2cccc(NS(=O)(=O)c3ccc(C(F)(F)F)cc3)c2n1 [ZDR025, N-(2-((Ethylamino)methyl)quinolin-8-yl)-4-(trifluoromethyl)-benzenesulfonamide]						
> 256 µg/mL	> 256 µg/mL	32 µg/mL (≈ 75.6 µM)	> 256 µg/mL	64 µg/mL (≈ 151 µM)	0.125 µg/mL (≈ 0.295 µM)	CCCNCc1ccc2cccc(NS(=O)(=O)c3ccc(C(F)(F)F)cc3)c2n1 [ZDR026, N-(2-((Propylamino)methyl)quinolin-8-yl)-4-(trifluoromethyl)-benzenesulfonamide]						
> 256 µg/mL	> 256 µg/mL	16 µg/mL (≈ 37.8 µM)	16 µg/mL (≈ 37.8 µM)	64 µg/mL (≈ 151 µM)	0.125 µg/mL (≈ 0.295 µM)	CC(C)NCc1ccc2cccc(NS(=O)(=O)c3ccc(C(F)(F)F)cc3)c2n1 [ZDR027, N-(2-((Isopropylamino)methyl)quinolin-8-yl)-4-(trifluoromethyl)-benzenesulfonamide]						
> 256 µg/mL	> 256 µg/mL	256 µg/mL (≈ 585 µM)	> 256 µg/mL	128 µg/mL (≈ 293 µM)	0.125 µg/mL (≈ 0.286 µM)	CCN(CC)Cc1ccc2cccc(NS(=O)(=O)c3ccc(C(F)(F)F)cc3)c2n1 [ZDR028, N-(2-((Diethylamino)methyl)quinolin-8-yl)-4-(trifluoromethyl)-benzenesulfonamide]						
> 256 µg/mL	> 256 µg/mL	> 256 µg/mL	> 256 µg/mL	> 256 µg/mL	0.25 µg/mL (≈ 0.554 µM)	O=S(=O)(Nc1cccc2ccc(CN3CCOCC3)nc12)c1ccc(C(F)(F)F)cc1 [ZDR029, N-(2-((Morpholin-4-yl)methyl)quinolin-8-yl)-4-(trifluoromethyl)-benzenesulfonamide]						
128 µg/mL (≈ 283 µM)	≥ 256 µg/mL	16 µg/mL (≈ 35.4 µM)	16 µg/mL (≈ 35.4 µM)	16 µg/mL (≈ 35.4 µM)	1 µg/mL (≈ 2.21 µM)	CN(C)CCNCc1ccc2cccc(NS(=O)(=O)c3ccc(C(F)(F)F)cc3)c2n1 [ZDR030, N-(2-(((2-(Dimethylamino)ethyl)amino)methyl)quinolin-8-yl)-4-(trifluoromethyl)benzenesulfonamide]						
≥ 256 µg/mL	> 256 µg/mL	32 µg/mL (≈ 75.2 µM)	32 µg/mL (≈ 75.2 µM)	16 µg/mL (≈ 37.6 µM)	0.5 µg/mL (≈ 1.18 µM)	O=S(=O)(Nc1cccc2ccc(CNCCO)nc12)c1ccc(C(F)(F)F)cc1 [ZDR031, N-(2-(((2-Hydroxyethyl)amino)methyl)quinolin-8-yl)-4-(trifluoromethyl)benzenesulfonamide]						
> 256 µg/mL	> 256 µg/mL	> 256 µg/mL	> 256 µg/mL	> 256 µg/mL	0.125 µg/mL (≈ 0.278 µM)	O=S(=O)(Nc1cccc2ccc(CN3CCCCC3)nc12)c1ccc(C(F)(F)F)cc1 [ZDR033, N-(2-((Piperidin-1-yl)methyl)quinolin-8-yl)-4-(trifluoromethyl)-benzenesulfonamide]						
32 µg/mL (≈ 67.7 µM)	> 256 µg/mL	4 µg/mL (≈ 8.47 µM)	4 µg/mL (≈ 8.47 µM)	2 µg/mL (≈ 4.23 µM)	1 µg/mL (≈ 2.12 µM)	O=S(=O)(Nc1cccc2ccc(CNCc3ccccn3)nc12)c1ccc(C(F)(F)F)cc1 [ZDR035, N-(2-((((Pyridin-2-yl)methyl)amino)methyl)quinolin-8-yl)-4-(trifluoromethyl)benzenesulfonamide]						
> 256 µg/mL	> 256 µg/mL	> 256 µg/mL	> 256 µg/mL	> 256 µg/mL	> 256 µg/mL	CN(CCN(C)Cc1ccc2cccc(NS(=O)(=O)c3ccc(C(F)(F)F)cc3)c2n1)Cc1ccc2cccc(NS(=O)(=O)c3ccc(C(F)(F)F)cc3)c2n1 [ZDR036, N,N′-(((Ethane-1,2-diylbis(methylazanediyl))bis(methylene))-bis(quinoline-2,8-diyl))bis(4-(trifluoromethyl)benzenesulfonamide)]						
> 256 µg/mL	> 256 µg/mL	> 256 µg/mL	> 256 µg/mL	> 256 µg/mL	2 µg/mL (≈ 2.63 µM)	CN(Cc1ccc2cccc(NS(=O)(=O)c3ccc(C(F)(F)F)cc3)c2n1)Cc1ccc2cccc(NS(=O)(=O)c3ccc(C(F)(F)F)cc3)c2n1 [ZDR037, N,N′-(((Methylazanediyl)bis(methylene))bis(quinoline-2,8-diyl))bis(4-(trifluoromethyl)benzenesulfonamide)]						
						O=C(O)CNCc1ccc2cccc(NS(=O)(=O)c3ccc(C(F)(F)F)cc3)c2n1 [ZDR043, N-(2-(((Carboxymethyl)amino)methyl)quinolin-8-yl)-4-(trifluoromethyl)benzenesulfonamide trifluoroacetate]	> 256 µg/mL	> 256 µg/mL	> 256 µg/mL	> 256 µg/mL	> 256 µg/mL	> 256 µg/mL
> 256 µg/mL	> 256 µg/mL	> 256 µg/mL	> 256 µg/mL	> 256 µg/mL	0.125 µg/mL (≈ 0.251 µM)	O=C(N/N=C/c1ccc2cccc(NS(=O)(=O)c3ccc(C(F)(F)F)cc3)c2n1)c1ccccc1 [ZDR045, (E)-N-(2-((2-Benzoylhydrazono)methyl)quinolin-8-yl)-4-(trifluoromethyl)benzenesulfonamide]						
> 256 µg/mL	> 256 µg/mL	4 µg/mL (≈ 8.82 µM)	4 µg/mL (≈ 8.82 µM)	4 µg/mL (≈ 8.82 µM)	1 µg/mL (≈ 2.21 µM)	NC(=S)N/N=C/c1ccc2cccc(NS(=O)(=O)c3ccc(C(F)(F)F)cc3)c2n1 [ZDR046, (E)-2-((8-((4-(Trifluoromethyl)phenyl)sulfonamido)quinolin-2-yl)methylene)hydrazine-1-carbothioamide]						
> 256 µg/mL	> 256 µg/mL	> 256 µg/mL	256 µg/mL (≈ 750 µM)	> 256 µg/mL	0.25 µg/mL (≈ 0.732 µM)	CN(C)Cc1ccc2cccc(NS(=O)(=O)c3ccccc3)c2n1 [ZDR061, N-(2-((Dimethylamino)methyl)quinolin-8-yl)benzenesulfonamide]						

SMILES	MIC [1, 4]	MIC [1, 5]	MIC [2, 6]	MIC [2, 7]	MIC [3, 8]	MIC [3, 9]	MIC ([1]; ATCC 10536 / ATCC 10596, read-out: E. coli ATCC 10536 MIC, No Zinc)	MIC ([1]; ATCC 10536 / ATCC 10596, read-out: E. coli ATCC 10536 MIC, Zinc (50 μM))	MIC ([2]; ATCC6538, read-out: S. aureus ATCC 6538 MIC, No Zinc)	MIC ([2]; ATCC6538, read-out: S. aureus ATCC 6538 MIC, Zinc (50 μM))	MIC ([3]; ATCC19436, read-out: S. uberis ATCC 19436 MIC, No Zinc)	MIC ([3]; ATCC19436, read-out: S. uberis ATCC 19436 MIC, Zinc (50 μM))
CC(C)(C)OC(=O)CNCc1ccc2cccc(NS(=O)(=O)c3ccc(C(F)(F)F)cc3)c2n1 [ZDR041, N-(2-(((tert-Butoxycarbonylmethyl)amino)methyl)quinolin-8-yl)-4-(trifluoromethyl)benzenesulfonamide]	> 256 µg/mL	> 256 µg/mL	64 µg/mL (≈ 129 µM)	> 256 µg/mL	> 256 µg/mL	0.5 µg/mL (≈ 1.01 µM)						
